Earlier results, collected in US8808764B2, “Methods and compositions for increasing growth hormones” (Quality IP Holdings, Inc., priority 2012, dated 2014).

Legend:
[1] = tested on: hGH
[2] = tested on: GH; conditions: subcutaneous injection of 0.06 IU in GH deficient subjects

| Compound | elevation of serum hGH levels ([1]; 30 g, intravenous, in males) | increase in hGH levels ([1]; intravenous infusion of 183 mg/kg body weight in females) | mean level of GH reached [2] |
| --- | --- | --- | --- |
| N=C(N)NCCC[C@H](N)C(=O)O [arginine] | 8.6 fold | ≥ 20 fold | – |
| HGH: human growth hormone given by subcutaneous injection to GH deficient subjects | – | – | 0.4 ng/mL |
